Laboratory results as given in PubChem BioAssay AID2060614 (Molecular Pharmacology Branch, DTP, NCI, 2025).
pIC50: −log10 of the molar value.

Test system: 598228-144-R-J1-PDC complex spheroids, viability
Assay: Anticancer human tumor 598228-144-R-J1-PDC patient-derived serous endometrial adenocarcinoma cell line growth inhibition [CLK]
Conditions: for pIC50: curve of first compound; for viability, T/C: stronger effect = lower value
How it was run: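 Multi-cell-type spheroids combined patient-derived tumor cells with HUVEC endothelial cells and human mesenchymal stem cells. Paired agents were dosed in half-log steps down from about clinical Cmax, or from 10 microM where Cmax was unknown.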
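Further: spheroids exposed to compounds for seven days before readout.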
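Wherever viability, T/C is given: 100% = DMSO vehicle control wells.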

How did the pIC50 (second compound 0.0316 µM) turn out when `C=CC(=O)Nc1cc(Nc2nccc(-c3cn(C)c4ccccc34)n2)c(OC)cc1N(C)CCN(C)C` + CN1CCN(c2cc(C(=O)Nc3cc4cc(-c5cnn(C)c5)ccc4cn3)ccn2)CC1 was run?
Its pIC50 is under 6.52.

And the pIC50 (second compound 0.1 µM)?
The pIC50 was under 6.52.

And the pIC50 (second compound 0.316 µM)?
The pIC50 was over 9.02.

And the pIC50 (second compound 1 µM)?
Its pIC50 is over 9.02.

And the pIC50 (second compound 3.16 µM)?
The pIC50 was over 9.02.

And the pIC50 (second compound 10 µM)?
The pIC50 was over 9.02.

And the viability, T/C (second compound 0.0316 µM, first compound 0.000949 µM)?
Its viability, T/C is 133%.

And the viability, T/C (second compound 0.0316 µM, first compound 0.003 µM)?
Its viability, T/C is 108%.

And the viability, T/C (second compound 0.0316 µM, first compound 0.00949 µM)?
The viability, T/C was 114%.

And the viability, T/C (second compound 0.0316 µM, first compound 0.03 µM)?
The viability, T/C was 117%.

And the viability, T/C (second compound 0.0316 µM, first compound 0.0949 µM)?
Its viability, T/C is 108%.

What about the viability, T/C (second compound 0.0316 µM, first compound 0.3 µM) of the same compound?
The viability, T/C was 98.8%.

What about the viability, T/C (second compound 0.1 µM, first compound 0.000949 µM) of the same compound?
The viability, T/C was 127%.

And the viability, T/C (second compound 0.1 µM, first compound 0.003 µM)?
Its viability, T/C is 126%.

And the viability, T/C (second compound 0.1 µM, first compound 0.00949 µM)?
The viability, T/C was 116%.

And the viability, T/C (second compound 0.1 µM, first compound 0.03 µM)?
Its viability, T/C is 112%.

What about the viability, T/C (second compound 0.1 µM, first compound 0.0949 µM) of the same compound?
The viability, T/C was 103%.

What about the viability, T/C (second compound 0.1 µM, first compound 0.3 µM) of the same compound?
Its viability, T/C is 91.9%.

And the viability, T/C (second compound 0.316 µM, first compound 0.000949 µM)?
The viability, T/C was 19.6%.

And the viability, T/C (second compound 0.316 µM, first compound 0.003 µM)?
Its viability, T/C is 17%.

And the viability, T/C (second compound 0.316 µM, first compound 0.00949 µM)?
The viability, T/C was 17.1%.

And the viability, T/C (second compound 0.316 µM, first compound 0.03 µM)?
The viability, T/C was 15.4%.

And the viability, T/C (second compound 0.316 µM, first compound 0.0949 µM)?
The viability, T/C was 12.5%.

What about the viability, T/C (second compound 0.316 µM, first compound 0.3 µM) of the same compound?
The viability, T/C was 14.6%.

And the viability, T/C (second compound 1 µM, first compound 0.000949 µM)?
Its viability, T/C is 1.75%.

And the viability, T/C (second compound 1 µM, first compound 0.003 µM)?
Its viability, T/C is 2.14%.

And the viability, T/C (second compound 1 µM, first compound 0.00949 µM)?
The viability, T/C was 6.03%.

And the viability, T/C (second compound 1 µM, first compound 0.03 µM)?
Its viability, T/C is 1.51%.

What about the viability, T/C (second compound 1 µM, first compound 0.0949 µM) of the same compound?
Its viability, T/C is 1.29%.

And the viability, T/C (second compound 1 µM, first compound 0.3 µM)?
Its viability, T/C is 3.97%.

And the viability, T/C (second compound 3.16 µM, first compound 0.000949 µM)?
Its viability, T/C is 1.65%.

What about the viability, T/C (second compound 3.16 µM, first compound 0.003 µM) of the same compound?
The viability, T/C was 1.56%.

And the viability, T/C (second compound 3.16 µM, first compound 0.00949 µM)?
Its viability, T/C is 2.1%.

What about the viability, T/C (second compound 3.16 µM, first compound 0.03 µM) of the same compound?
The viability, T/C was 1.72%.

What about the viability, T/C (second compound 3.16 µM, first compound 0.0949 µM) of the same compound?
Its viability, T/C is 2.58%.

And the viability, T/C (second compound 3.16 µM, first compound 0.3 µM)?
Its viability, T/C is 2.49%.

And the viability, T/C (second compound 10 µM, first compound 0.000949 µM)?
Its viability, T/C is 1.18%.

And the viability, T/C (second compound 10 µM, first compound 0.003 µM)?
Its viability, T/C is 1.02%.

And the viability, T/C (second compound 10 µM, first compound 0.00949 µM)?
Its viability, T/C is 1.77%.

And the viability, T/C (second compound 10 µM, first compound 0.03 µM)?
The viability, T/C was 1.25%.

What about the viability, T/C (second compound 10 µM, first compound 0.0949 µM) of the same compound?
Its viability, T/C is 5.91%.

What about the viability, T/C (second compound 10 µM, first compound 0.3 µM) of the same compound?
The viability, T/C was 2.52%.
